Laboratory results published in PubChem BioAssay (NCI).
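Dose response: 5 concentrations. Exposure: 48 h. Format: 96-well plates. Endpoint: linear interpolation; highest concentration if not reached. GI50 marks 50% less growth. At the TGI there is no net growth.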

What was measured:
Assay in all cases: NCI anticancer screen, dose series, 48 h
RPMI-8226 leukemia = tested on: RPMI-8226 leukemia
SK-MEL-5 melanoma = tested on: SK-MEL-5 melanoma
NCI-H23 lung = tested on: NCI-H23 lung
MALME-3M melanoma = tested on: MALME-3M melanoma
OVCAR-4 ovarian = tested on: OVCAR-4 ovarian
HCC-2998 colon = tested on: HCC-2998 colon
SNB-19 CNS = tested on: SNB-19 CNS
OVCAR-8 ovarian = tested on: OVCAR-8 ovarian
MDA-MB-435 = tested on: MDA-MB-435
OVCAR-5 ovarian = tested on: OVCAR-5 ovarian
UACC-62 melanoma = tested on: UACC-62 melanoma
HOP-62 NSCLC = tested on: HOP-62 NSCLC
UO-31 renal = tested on: UO-31 renal
SF-268 CNS = tested on: SF-268 CNS
HL-60(TB) leukemia = tested on: HL-60(TB) leukemia
HT29 colon = tested on: HT29 colon
CAKI-1 renal = tested on: CAKI-1 renal
OVCAR-3 ovarian = tested on: OVCAR-3 ovarian
IGROV1 ovarian = tested on: IGROV1 ovarian
PC-3 prostate = tested on: PC-3 prostate
SF-539 CNS = tested on: SF-539 CNS
A549 NSCLC = tested on: A549 NSCLC
SW-620 colon = tested on: SW-620 colon
KM12 colon = tested on: KM12 colon
ACHN renal = tested on: ACHN renal
MCF7 breast = tested on: MCF7 breast
M14 melanoma = tested on: M14 melanoma
COLO 205 colon = tested on: COLO 205 colon
DU-145 prostate = tested on: DU-145 prostate
CCRF-CEM leukemia = tested on: CCRF-CEM leukemia
SN12C renal = tested on: SN12C renal
MOLT-4 leukemia = tested on: MOLT-4 leukemia
NCI-H460 lung = tested on: NCI-H460 lung
SF-295 CNS = tested on: SF-295 CNS
TK-10 renal = tested on: TK-10 renal
U251 CNS = tested on: U251 CNS
HOP-92 NSCLC = tested on: HOP-92 NSCLC
SNB-75 CNS = tested on: SNB-75 CNS
HCT-116 colon = tested on: HCT-116 colon
EKVX NSCLC = tested on: EKVX NSCLC
UACC-257 melanoma = tested on: UACC-257 melanoma
MDA-MB-231 breast = tested on: MDA-MB-231 breast
K-562 leukemia = tested on: K-562 leukemia
T-47D breast = tested on: T-47D breast
A498 renal = tested on: A498 renal
NCI-H522 lung = tested on: NCI-H522 lung
BT-549 breast = tested on: BT-549 breast
NCI/ADR-RES ovarian = tested on: NCI/ADR-RES ovarian
HCT-15 colon = tested on: HCT-15 colon
NCI-H226 lung = tested on: NCI-H226 lung
SK-OV-3 ovarian = tested on: SK-OV-3 ovarian
HS 578T breast = tested on: HS 578T breast
SK-MEL-28 melanoma = tested on: SK-MEL-28 melanoma
SK-MEL-2 melanoma = tested on: SK-MEL-2 melanoma
786-0 renal = tested on: 786-0 renal
LOX IMVI melanoma = tested on: LOX IMVI melanoma
SR leukemia = tested on: SR leukemia
RXF 393 renal = tested on: RXF 393 renal

## C=C(C)C(=O)O[C@H]1C[C@@]2(C)OC(=CC2=O)/C(C)=C\[C@H]2OC(=O)C(=C)[C@H]12
RPMI-8226 leukemia
  GI50: 1.06 µM
  TGI: 3.4 µM
SK-MEL-5 melanoma
  GI50: 3.67 µM
  TGI: 13.6 µM
NCI-H23 lung
  GI50: 1.54 µM
  TGI: 8.32 µM
MALME-3M melanoma
  GI50: 0.666 µM
  TGI: 1.5 µM
OVCAR-4 ovarian
  GI50: 1.38 µM
  TGI: 6.36 µM
HCC-2998 colon
  GI50: 3.3 µM
  TGI: 8.15 µM
SNB-19 CNS
  GI50: 11.1 µM
  TGI: > 33.2 µM
OVCAR-8 ovarian
  GI50: 1.23 µM
  TGI: > 33.2 µM
MDA-MB-435
  GI50: 0.717 µM
  TGI: 1.78 µM
OVCAR-5 ovarian
  GI50: 1.03 µM
  TGI: 3.21 µM
UACC-62 melanoma
  GI50: 0.675 µM
  TGI: 1.8 µM
HOP-62 NSCLC
  GI50: 6.5 µM
  TGI: 24.6 µM
UO-31 renal
  GI50: 0.56 µM
  TGI: 1.24 µM
SF-268 CNS
  GI50: 1.99 µM
  TGI: > 16.7 µM
HL-60(TB) leukemia
  GI50: 0.913 µM
  TGI: 2.45 µM
HT29 colon
  GI50: 0.957 µM
  TGI: 3.29 µM
CAKI-1 renal
  GI50: 0.928 µM
  TGI: 3.12 µM
OVCAR-3 ovarian
  GI50: 0.863 µM
  TGI: 2.92 µM
IGROV1 ovarian
  GI50: 1.95 µM
  TGI: 6.23 µM
PC-3 prostate
  GI50: 2.01 µM
  TGI: 7.63 µM
SF-539 CNS
  GI50: 1.07 µM
  TGI: 4.78 µM
A549 NSCLC
  GI50: 8.47 µM
  TGI: > 33.2 µM
SW-620 colon
  GI50: 0.705 µM
  TGI: 1.72 µM
KM12 colon
  GI50: 3.84 µM
  TGI: 8.87 µM
ACHN renal
  GI50: 0.625 µM
  TGI: 1.6 µM
MCF7 breast
  GI50: 1 µM
  TGI: 5.33 µM
M14 melanoma
  GI50: 0.79 µM
  TGI: 2.37 µM
COLO 205 colon
  GI50: 0.554 µM
  TGI: 1.26 µM
DU-145 prostate
  GI50: 0.968 µM
  TGI: 4.18 µM
CCRF-CEM leukemia
  GI50: 0.93 µM
  TGI: 4.25 µM
SN12C renal
  GI50: 1.3 µM
  TGI: 11 µM
MOLT-4 leukemia
  GI50: 1.01 µM
  TGI: 3.52 µM
NCI-H460 lung
  GI50: 5.01 µM
  TGI: > 33.2 µM
SF-295 CNS
  GI50: 5.82 µM
  TGI: 18.5 µM
TK-10 renal
  GI50: 0.859 µM
  TGI: 2.06 µM
U251 CNS
  GI50: 1.75 µM
  TGI: 7.16 µM
HOP-92 NSCLC
  GI50: 1.04 µM
  TGI: 2.99 µM
SNB-75 CNS
  GI50: 1.15 µM
  TGI: 16.4 µM
HCT-116 colon
  GI50: 0.53 µM
  TGI: 1.21 µM
EKVX NSCLC
  GI50: 1.31 µM
  TGI: 12.2 µM
UACC-257 melanoma
  GI50: 0.872 µM
  TGI: 2.28 µM
MDA-MB-231 breast
  GI50: 1.18 µM
  TGI: 4.64 µM
K-562 leukemia
  GI50: 1.15 µM
  TGI: > 33.2 µM
T-47D breast
  GI50: 0.661 µM
  TGI: 3.8 µM
A498 renal
  GI50: 7.42 µM
  TGI: 16.5 µM
NCI-H522 lung
  GI50: 0.461 µM
  TGI: 1.04 µM
BT-549 breast
  GI50: 0.927 µM
  TGI: 3.03 µM
NCI/ADR-RES ovarian
  GI50: 1.11 µM
  TGI: > 33.2 µM
HCT-15 colon
  GI50: 0.795 µM
  TGI: 3.29 µM
NCI-H226 lung
  GI50: 0.762 µM
  TGI: 1.99 µM
SK-OV-3 ovarian
  GI50: 10.7 µM
  TGI: > 33.2 µM
HS 578T breast
  GI50: 8.21 µM
  TGI: > 33.2 µM
SK-MEL-28 melanoma
  GI50: 0.788 µM
  TGI: 1.96 µM
SK-MEL-2 melanoma
  GI50: 1.4 µM
  TGI: 6.02 µM
786-0 renal
  GI50: 0.66 µM
  TGI: 1.5 µM
LOX IMVI melanoma
  GI50: 0.601 µM
  TGI: 1.34 µM
SR leukemia
  GI50: 0.734 µM
  TGI: 6.3 µM
RXF 393 renal
  GI50: 0.601 µM
  TGI: 1.19 µM
